From ChEMBL document CHEMBL1201862, “PubChem BioAssay data set” (2004)
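Where inhibition never reached the appropriate level, the endpoint shown equals the highest concentration tested. Otherwise, values were interpolated linearly from a five-concentration, 48-hour dose response in 96-well plates. GI50 = concentration required for 50% inhibition of growth.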 Activity calls are given as the source filed them. Cut-off read from the data, not from the text of the source: active = GI50 up to about 1.1 µM and inactive = higher.

Experiments:
Assay in all cases: inhibition of tumour cell growth, NCI panel, 48 h
CCRF-CEM = system: CCRF-CEM
COLO 205 = system: COLO 205
HT-29 = system: HT-29
IGROV-1 = system: IGROV-1
K562 = system: K562
KM12 = system: KM12
LXFL 529 = system: LXFL 529
NCI-H522 = system: NCI-H522
OVCAR-3 = system: OVCAR-3
RPMI-8226 = system: RPMI-8226
SK-MEL-2 = system: SK-MEL-2
SK-OV-3 = system: SK-OV-3
SN12C = system: SN12C
SW-620 = system: SW-620
U-251 = system: U-251
UACC-62 = system: UACC-62
UO-31 = system: UO-31
Hs-578T = system: Hs-578T
NCI/ADR-RES = system: NCI/ADR-RES
PC-3 = system: PC-3

Structure (SMILES)	GI50 (CCRF-CEM)	GI50 (COLO 205)	GI50 (HT-29)	GI50 (IGROV-1)	GI50 (K562)	GI50 (KM12)	GI50 (LXFL 529)	GI50 (NCI-H522)	GI50 (OVCAR-3)	GI50 (RPMI-8226)	GI50 (SK-MEL-2)	GI50 (SK-OV-3)	GI50 (SN12C)	GI50 (SW-620)	GI50 (U-251)	GI50 (UACC-62)	GI50 (UO-31)	GI50 (Hs-578T)	GI50 (NCI/ADR-RES)	GI50 (PC-3)
CC1=CC(=O)NP(=O)(C23CC4CC(CC(C4)C2)C3)N1 (stereo not drawn)	> 100 µM (inactive)	> 100 µM (inactive)	> 100 µM (inactive)	> 100 µM (inactive)	> 100 µM (inactive)	> 100 µM (inactive)	> 100 µM (inactive)	> 100 µM (inactive)	> 100 µM (inactive)	> 100 µM (inactive)	> 100 µM (inactive)	> 100 µM (inactive)	> 100 µM (inactive)	> 100 µM (inactive)	> 100 µM (inactive)	> 100 µM (inactive)	> 100 µM (inactive)	–	–	–
C=C1C(=O)OC2/C=C(\CO)C3OC3C3OC3(C)CC(OC(=O)/C(=C/C)COC(C)=O)C12 (stereo not drawn)	2.29 µM (inactive)	1.63 µM (inactive)	3.89 µM (inactive)	13.2 µM (inactive)	16 µM (inactive)	7.31 µM (inactive)	0.805 µM (active)	0.313 µM (active)	3.52 µM (inactive)	> 100 µM (inactive)	3.31 µM (inactive)	18.2 µM (inactive)	3.2 µM (inactive)	1.35 µM (inactive)	5 µM (inactive)	2.86 µM (inactive)	10.6 µM (inactive)	3.7 µM (inactive)	12.1 µM (inactive)	14 µM (inactive)
COC(=O)[C@H](CC(C)C)NC(=O)[C@H](Cc1ccccc1)N1CC2C=CC1C2 (stereo partly drawn)	> 100 µM (inactive)	> 100 µM (inactive)	> 100 µM (inactive)	> 100 µM (inactive)	> 100 µM (inactive)	> 100 µM (inactive)	> 100 µM (inactive)	> 100 µM (inactive)	> 100 µM (inactive)	29.1 µM (inactive)	> 100 µM (inactive)	> 100 µM (inactive)	> 100 µM (inactive)	> 100 µM (inactive)	> 100 µM (inactive)	> 100 µM (inactive)	> 100 µM (inactive)	–	–	–
CC(=O)C(O)N1C(=O)C=CC1=O (stereo not drawn)	–	1.56 µM (inactive)	16.4 µM (inactive)	21.1 µM (inactive)	> 25 µM (inactive)	18.9 µM (inactive)	1.82 µM (inactive)	1 µM (active)	17.6 µM (inactive)	2.26 µM (inactive)	17.5 µM (inactive)	25.2 µM (inactive)	2.83 µM (inactive)	1.71 µM (inactive)	17.4 µM (inactive)	16.8 µM (inactive)	5.86 µM (inactive)	7.38 µM (inactive)	13.2 µM (inactive)	6.11 µM (inactive)
Cc1ccc(C(=O)NCc2ccccc2)cc1/N=N/N(C)C	87.7 µM (inactive)	> 100 µM (inactive)	> 58.7 µM (inactive)	> 100 µM (inactive)	> 100 µM (inactive)	64.4 µM (inactive)	47.5 µM (inactive)	27.7 µM (inactive)	44.3 µM (inactive)	40.9 µM (inactive)	> 100 µM (inactive)	> 100 µM (inactive)	> 100 µM (inactive)	> 100 µM (inactive)	> 100 µM (inactive)	> 100 µM (inactive)	> 31.5 µM (inactive)	> 100 µM (inactive)	86.3 µM (inactive)	71.3 µM (inactive)
